Laboratory results: patent publication US20230404913A1, “PHARMACEUTICAL FORMULATIONS FOR TREATING DISEASES ASSOCIATED WITH VOLTAGE-GATED SODIUM CHANNELS” (Xenon Pharmaceuticals, Inc., priority 2020, published 2023)
Where two headings read alike, the source gives them in different places.

How the values were obtained:
[1] = Pharmacokinetic study, 3-period crossover, plasma concentrations of Compound A by LC-MS/MS; type: in vivo, human; details: for AUC(0-inf) / AUC(0-t): human, plasma, oral, 50 mg, pediatric formulation, 50 mg single dose; for AUC(0-inf): read-out: AUC0-inf, mean; for AUC(0-t): read-out: AUC0-t, mean
Method: (§1) In this single center, open-label, randomized study, 24 subjects (8 per each arm) received Compound A adult immediate release tablet or granular formulation suitable for reconstitution formulation in a fasted or fed state (high fat meal) in a 3-period, 3-sequence crossover design. Compound A was formulated as a granular formulation suitable for reconstitution (“Compound A pediatric formulation”) as described herein.
(§2) A 50 mg dose was used in this adult PK study.
For each study period, subjects received one of the 3 following treatments:
(§3) Treatment A: Single doses of 50 mg Compound A pediatric formulation (1 sachet of granules) under fed conditions.
(§4) Treatment B: Single doses of 50 mg Compound A pediatric formulation (1 sachet of granules) under fasting conditions.
(§5) Treatment C: Single doses of 50 mg Compound A adult tablet formulation (1×50 mg IR tablet) under fasting conditions.
Three groups of 8 subjects were randomized to one of the following 3 sequences.
Following an overnight fast of at least 10 hours, subjects received a standardized high-fat, high calorie meal 30 minutes before administration. Subjects must have eaten the total content of this meal in 30 minutes or less.
Thirty minutes after the start of breakfast, subjects were administered the suspension (the contents of one sachet of the Compound A pediatric formulation [granules for oral suspension] was mixed thoroughly with 120 mL of water at ambient temperature). Thereafter, the glass was rinsed twice with approximately 60 mL of water at ambient temperature and the subject was asked to drink the 60 mL of suspension each time. A total of approximately 240 mL of water was administered with the formulation within 5 minutes.
Additional food was then withheld for at least 4 hours following administration. Water was provided as needed until 1 hour pre-dose. Water was allowed beginning 1 hour after the administration of the drug.
Subjects fasted overnight for a minimum of 10 hours prior to dosing.
Subjects were administered the Compound A suspension (the contents of one sachet [granules for oral suspension] was mixed thoroughly with 120 mL of water at ambient temperature). Thereafter, the glass was rinsed twice with approximately 60 mL of water at ambient temperature and the subject was asked to drink the 60 mL of suspension each time. A total of approximately 240 mL of water was administered with the formulation within 5 minutes.
Fasting continued for at least 4 hours following Compound A administration. Water was provided as needed until 1 hour pre-dose. Water was allowed beginning 1 hour after the administration of the drug.
A single dose of the Compound A IR tablet was administered with approximately 240 mL of water, starting at 09:00, to 1 subject per 2 minute intervals.
Fasting continued for at least 4 hours following administration. Water was provided as needed until 1 hour pre-dose. Water was allowed beginning 1 hour after the administration of the drug.
Serial PK samples were obtained pre-dose and at specific timepoints through 48 h post-dose Plasma concentrations of Compound A were determined using validated liquid chromatography with tandem mass spectrometry method.

[2] = Pharmacokinetic study, urinary excretion of unchanged Compound A; type: in vivo, human; details: for CL renal: human, urine, oral, 50 mg
Method: as §1, §2, §3, §4, §5
Overall (based on data from Cohorts 1 and 2), the fraction excreted in urine is less than 0.1%, thus the contribution of the urinary excretion in the disposition and elimination of the Compound A as a parent compound is negligible. The PK and statistical analysis were performed including all subjects with measurable pre-dose concentrations.

[3] = pediatric formulation 50 mg, fed vs fasted

- AUC(0-inf) ([1]; fasting): 11300 ng·h/mL
- AUC(0-t) ([1]; fasting): 11100 ng·h/mL
- AUC(0-inf) ([1]; fed (high-fat meal)): 11800 ng·h/mL
- AUC(0-t) ([1]; fed (high-fat meal)): 11700 ng·h/mL
- intra-subject CV % for AUC0-inf [1, 3]: 9%
- intra-subject CV % for AUC0-t [1, 3]: 11%
- GMR for AUC0-inf ([1]; pediatric formulation 50 mg, fed vs fasted, 90% CI 97.98-107.58%): 102.67%
- GMR for AUC0-t ([1]; pediatric formulation 50 mg, fed vs fasted, 90% CI 98.23-109.57%): 103.74%
- CL renal ([2]; pediatric formulation 50 mg, fasting): 0.05 mL/min
- CL renal ([2]; pediatric formulation 50 mg, fed): 0.055 mL/min
- fraction excreted in urine ([2]; overall, based on data from Cohorts 1 and 2): less than 0.1%
- GMR for CLr ([2]; pediatric formulation 50 mg, fed vs fasting): 115.56%
SMILES: Cc1cc(S(=O)(=O)Nc2cscn2)c(F)cc1N(C)[C@H]1CCN(Cc2ccccc2)C1 [Compound A, (S)-4-((1-benzylpyrrolidin-3-yl)(methyl)amino)-2-fluoro-5-methyl-N-(thiazol-4-yl)benzenesulfonamide]
